pIC50: −log10 of the molar value.
Columns and labels:
Type in all cases: cell-based, human
SW620 cells [1] = test: Neutral red uptake viability assay, SW620; conditions: for survival rate: 72 h, n = 3, ± SD; for pIC50: SW620, 72 h, n = 3, read-out: Cytotoxic activity IC50 (95% CI)
Procedure: (§1) To evaluate this aspect, we investigated the viability of SW620 colon cancer cells and their multidrug-resistant variants (overexpressing ABCB1, ABCC1, and ABCG2) exposed to 1 and 10 μM 4a–e using a neutral red uptake assay (Table ). In general, compounds 4a–e exerted little or no cytotoxic effect on either SW620 or multidrug-resistant sublines even at 10 μM, with the remarkable exception of SW620C (cisplatin-selected variant of SW620) cells, which turned out to be relatively susceptible toward ferrocenyl 4a–c. […] This trend may reflect steric or electronic contributions to cellular uptake or interaction with intracellular targets. […] However, since E/Z isomeric data are currently available only for compound 4c, this hypothesis requires validation. To quantify this effect, IC50 values were determined (Table ). […]
(§2) The normal lung fibroblast MRC-5 and colorectal adenocarcinoma SW620 cell lines used in this experiment were purchased from American Type Culture Collection (USA) via LGC […]
(§3) Standards. Multidrug-resistant variants of SW620 cells were developed in our laboratory as described previously.10, 11 All cells were cultured under standard conditions (37°C, 5% CO2, 100% humidity) in high-glucose DMEM supplemented with GlutaMaxTM, HEPES (ThermoFisher Scientific, USA), and 10% fetal bovine serum (EURx, Poland). Cells were routinely tested for potential Mycoplasma contamination using the MycoProbe Mycoplasma Detection kit (R&D System, USA).
(§4) In total, 104 cells in 100 µL of complete medium were plated per well of a 96-well plate and left overnight to allow cells to adhere to the surface. Then, the cells were exposed to a desired concentration of tested compound(s). Stock solutions were prepared in DMSO and used immediately. The final DMSO concentration was constant and nontoxic (0.1% v/v). After 70-h incubation, neutral red was added to the final concentration of 1 mM. After another 2 h, the medium was aspirated, and cells were washed twice with PBS. Dye was released using 100 µL of a solubilizer (1% acetic acid in 50% ethanol) on an orbital shaker (10 min). Absorbance was read at 540 nm using EnVision Multilabel Plate Reader (Perkin Elmer, USA). Results were expressed as % of control. The IC50 parameters were calculated using GraphPad Prism version 10 (GraphPad Software, Boston, Massachusetts USA). […]
(§5) All experiments were performed in triplicate (n = 3).

[2] = system: ABCG2-overexpressing SW620C cells; test: MDR reversal assay (ERP), SW620C; conditions: for ERP value, cisplatin + compound: SW620C (xlsx); for ERP = IC50(drug)MDR/IC50(drug+4)MDR: cisplatin, SW620C
Text: (§6) We investigated the potency of 4a–e to inhibit ABC transporters (ABCB1, ABCC1, and ABCG2) by determining their enhancement of reversal potency (ERP) values. ERP represents fold changes in the IC50 values of anticancer drugs in multidrug-resistant cancer sublines (ABCB1-overexpressing SW620D, SW620E, and SW620V; ABCC1-overexpressing SW620M; ABCG2-overexpressing SW620C and SW620Mito) exposed to a combination of the investigated compounds and anticancer agents at equimolar concentrations, compared with values obtained with drugs alone (Tables S2 and S3 and Figure ).
as §3
(§7) In total, 104 cells in 100 µL of complete medium were plated per well of a 96-well plate and left overnight to allow cells to adhere to the surface. Then, the cells were exposed to a desired concentration of tested compound(s). Stock solutions were prepared in DMSO and used immediately. The final DMSO concentration was constant and nontoxic (0.1% v/v). After 70-h incubation, neutral red was added to the final concentration of 1 mM. After another 2 h, the medium was aspirated, and cells were washed twice with PBS. Dye was released using 100 µL of a solubilizer (1% acetic acid in 50% ethanol) on an orbital shaker (10 min). Absorbance was read at 540 nm using EnVision Multilabel Plate Reader (Perkin Elmer, USA). Results were expressed as % of control. The IC50 parameters were calculated using GraphPad Prism version 10 (GraphPad Software, Boston, Massachusetts USA).
(§8) The enhancement of reversal potency (ERP) value determination
(§9) For MDR reversal assays, cytotoxic agents were co-administered with compounds 4a–4e at equimolar concentrations in a range of 10 nM to 100 µM. IC₅₀ values were determined in ABCB1-overexpressing SW620 cell line variants. The enhancement of reversal potency (ERP) was calculated using the following formula: ERP = IC₅₀(drug)MDR / IC₅₀(drug + compound)MDR. All experiments were performed in triplicate (n = 3).

[3] = system: SW620M cells (methotrexate-resistant); test: Neutral red uptake viability assay, SW620M; conditions: 72 h; for survival rate: n = 3, ± SD; for pIC50: n = 3, read-out: Cytotoxic activity IC50 (95% CI)
Procedure: as §1, with “In” for “To evaluate this aspect, we investigated the viability of SW620 colon cancer cells and their multidrug-resistant variants (overexpressing ABCB1, ABCC1, and ABCG2) exposed to 1 and 10 μM 4a–e using a neutral red uptake assay (Table ). In”
as §2, §3, §4, §5

[4] = system: SW620E cells (etoposide-resistant); test: Neutral red uptake viability assay, SW620E; conditions: 72 h; for survival rate: n = 3, ± SD; for pIC50: n = 3, read-out: Cytotoxic activity IC50 (95% CI)
Procedure: as §1, §2, §3, §4, §5

[5] = system: SW620D cells (doxorubicin-resistant); test: Neutral red uptake viability assay, SW620D; conditions: 72 h; for survival rate: n = 3, ± SD; for pIC50: n = 3, read-out: Cytotoxic activity IC50 (95% CI)
Procedure: as §1, with “In” for “To evaluate this aspect, we investigated the viability of SW620 colon cancer cells and their multidrug-resistant variants (overexpressing ABCB1, ABCC1, and ABCG2) exposed to 1 and 10 μM 4a–e using a neutral red uptake assay (Table ). In”
as §2, §3, §7, §8, §9

SW620 cells [6] = test: Synergy determination (Bliss model, SynergyFinder), SW620;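 note: score below −10 means likely antagonism and −10 to 10 means additive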
Text: In an ideal setting, the effect of cell exposure to a combination of a chemotherapeutic and an MDR inhibitor should be synergistic. […] The highest synergy scores identified an optimal concentration range where the combination exerted its maximal effect. […] In cisplatin-resistant SW620C cells, the low or lack of synergy observed for most compounds may be due to the additive effects of cisplatin and 4 rather than a true synergistic interaction. […]
To evaluate the potential interactions between putative ABC inhibitors and anticancer drugs, we utilized the Bliss independence model, as implemented in the SynergyFinder web application.13, 14 Synergy scores and the most synergistic area scores were calculated based on the normalized dose–response matrices. A synergy score below −10 indicates likely […]
above 10 is indicative of likely synergistic interactions.
All experiments were performed at least three times, and the data were statistically analyzed

[7] = system: ABCB1-overexpressing SW620E cells; test: MDR reversal assay (ERP), SW620E; conditions: for ERP value, etoposide + compound: SW620E (xlsx); for ERP = IC50(drug)MDR/IC50(drug+4)MDR: etoposide, SW620E
Text: as §6, §3, §7, §8, §9

[8] = system: ABCB1-overexpressing SW620V cells; test: MDR reversal assay (ERP), SW620V; conditions: for ERP value, vincristine + compound: SW620V (xlsx); for ERP = IC50(drug)MDR/IC50(drug+4)MDR: vincristine, SW620V
Text: as §6, §3, §7, §8, §9

Row | Structure (SMILES) | survival rate (SW620 cells [1]; SW620, 1 μM) [%] | survival rate (SW620 cells [1]; SW620, 10 μM) [%] | pIC50 (SW620 cells [1]) | ERP value, cisplatin + compound [2] | survival rate ([3]; 1 μM) [%] | survival rate ([3]; 10 μM) [%] | pIC50 [3] | survival rate ([4]; 1 μM) [%] | survival rate ([4]; 10 μM) [%] | survival rate ([5]; 1 μM) [%] | survival rate ([5]; 10 μM) [%] | synergy score (in parentheses) (SW620 cells [6]; drug cisplatin + additive) | synergy score (in parentheses) (SW620 cells [6]; drug doxorubicin + additive) | synergy score (in parentheses) (SW620 cells [6]; drug etoposide + additive) | synergy score (in parentheses) (SW620 cells [6]; drug mitoxantrone + additive) | ERP value, etoposide + compound [7] | ERP = IC50(drug)MDR/IC50(drug+4)MDR [7] | ERP value, vincristine + compound [8] | ERP = IC50(drug)MDR/IC50(drug+4)MDR [8] | ERP = IC50(drug)MDR/IC50(drug+4)MDR [2] | also measured
1 | O=C1N/C(=C/c2cccc(-[c-]3cccc3)c2)C(=O)N2CCC[C@@H]12.[Fe+2].c1cc[cH-]c1 [(S,E)-4c] | 95 ± 3.4 | 95 ± 6.0 | < 4.00 | 3.45 | 93 ± 1.8 | 96 ± 4.6 | < 4.00 | 95 ± 2.1 | 91 ± 0.8 | 95 ± 1.5 | 95 ± 4.5 | −4.66 | −1.89 | −4.80 | 0.86 | 0.87 | 0.87 | 0.81 | 0.81 |  | pIC50 [4]: < 4.00; pIC50 [5]: < 4.00; synergy score (in parentheses) (SW620 cells [6]; drug methotrexate + additive): −4.31
2 | O=C1N/C(=C\c2ccc(-[c-]3cccc3)cc2)C(=O)N2CCC[C@@H]12.[Fe+2].c1cc[cH-]c1 [(S,Z)-4d] | 97 ± 3.0 | 97 ± 2.1 | < 4.00 | 2.58 | 99 ± 0.8 | 95 ± 1.5 | < 4.00 | 97 ± 0.8 | 94 ± 2.5 | 92 ± 0.8 | 96 ± 0.9 | −2.46 |  | 0.64 | -1.93 | 5.84 | 5.84 | 12.7 | 12.7 | 2.58 | pIC50 [4]: < 4.00; pIC50 [5]: < 4.00; synergy score (in parentheses) (SW620 cells [6]; drug methotrexate + additive): −2.64; synergy score (in parentheses) (SW620 cells [6]; drug vincristine + additive): -1.29
3 | O=C1N/C(=C\c2ccccc2-[c-]2cccc2)C(=O)N2CCC[C@@H]12.[Fe+2].c1cc[cH-]c1 [(S,Z)-4b] | 91 ± 8.0 | 84 ± 13 | < 4.00 | 4.53 | 97 ± 0.8 | 96 ± 3.5 | 4.28 | 93 ± 1.2 | 99 ± 0.8 | 97 ± 1.0 | 87 ± 3.0 | −5.00 | −2.67 | −5.23 | −3.17 | 2.22 | 2.22 | 9.57 | 9.57 | 4.53 | pIC50 [4]: < 4.00; pIC50 [5]: < 4.00; synergy score (in parentheses) (SW620 cells [6]; drug methotrexate + additive): 3.26; synergy score (in parentheses) (SW620 cells [6]; drug vincristine + additive): 5.77
4 | O=C1N/C(=C\c2ccccc2)C(=O)N2CCC[C@@H]12 [(S,Z)-4e] | 94 ± 5.4 | 92 ± 5.0 |  | 0.70 | 96 ± 4.8 | 95 ± 4.0 |  | 94 ± 1.9 | 96 ± 4.4 | 96 ± 0.7 | 94 ± 2.9 | −3.94 | −3.90 | −3.96 | 1.87 | 0.88 | 0.88 | 1.27 | 1.27 | 0.70 | 
5 | O=C1N/C(=C\[c-]2cccc2)C(=O)N2CCC[C@@H]12.[Fe+2].c1cc[cH-]c1 [(S,Z)-4a] | 95 ± 2.2 | 88 ± 6.0 | < 4.00 | 4.86 | 93 ± 0.9 | 98 ± 2.3 | < 4.00 | 93 ± 0.8 | 94 ± 3.0 | 96 ± 4.8 | 93 ± 1.1 | −4.74 | −4.15 | −4.45 | −1.66 | 5.61 | 5.61 | 6.00 | 6.00 | 4.86 | pIC50 [4]: < 4.00; pIC50 [5]: < 4.00; synergy score (in parentheses) (SW620 cells [6]; drug methotrexate + additive): −5.99; synergy score (in parentheses) (SW620 cells [6]; drug vincristine + additive): −0.36
6 | O=C1N/C(=C/c2ccccc2)C(=O)N2CCC[C@@H]12 [(S,E)-4e] | 96 ± 3.4 | 96 ± 2.2 |  | 1.98 | 93 ± 0.3 | 95 ± 3.4 |  | 96 ± 2.5 | 99 ± 0.9 | 96 ± 2.4 | 95 ± 0.7 | −4.17 | −4.78 | −1.15 | −3.41 | 0.88 | 0.88 | 1.34 | 1.37 | 1.98 | 
